From PMC9409043, “Serotonin 5-HT6 Receptor Ligands and Butyrylcholinesterase Inhibitors Displaying Antioxidant Activity—Design, Synthesis and Biological Evaluation of Multifunctional Agents against Alzheimer’s Disease” (International Journal of Molecular Sciences, 2022)
Values joined by “and” are separate entries in the source; they are usually repeats but may differ in a detail not shown here. Identical values can stand only once.

Legend:
[1] = target: T1, human 5-HT6 receptor (Homo sapiens, UniProt P50406); test: 5-HT6 receptor radioligand binding assay ([3H]-LSD, CHO-K1 membranes)
T1 construct: purchased PerkinElmer; host or cells: CHO-K1 cells, stably transfected (membrane preparation)
Protocol: 5-HT6R binding affinity and cholinesterase (AChE/BuChE) inhibitory activity. We evaluated the pharmacological properties of the final compounds 12–19 in vitro according to the previously described, well-established protocols. Their affinities for recombinant human 5-HT6 receptors (h5-HT6R) were tested in a radioligand binding assay and the inhibitory potencies against human recombinant AChE (hAChE) and BuChE isolated from human plasma (hBuChE) in the spectrophotometric Ellman’s assay. […].
We prepared 10 mM of stock solutions of tested compounds in DMSO. Serial dilutions of compounds were prepared in a 96-well microplate in assay buffers using the automated pipetting system epMotion 5070 (Eppendorf). Each compound was tested in 8 concentrations from 10^−5 to 10^−12 M (final concentration).
The radioligand binding assay was performed using membranes from CHO-K1 cells stably transfected with the human 5-HT6 receptor (PerkinElmer) according to the previously described procedure. All assays were carried out in duplicates. We prepared 50 µL working solution of the tested compounds, 50 µL [^3H]-LSD (final concentration 2.5 nM) and 150 µL diluted membranes (15 µg protein per well) in assay buffer (50 mM Tris, pH 7.4, 10 mM MgCl2, 0.1 mM EDTA) and transferred them to polypropylene 96-well microplates using a 96-well pipetting station Rainin Liquidator (MettlerToledo). Methiothepin (10 μM) was used to define nonspecific binding. The microplate was covered with sealing tape, mixed and incubated for 60 min at 27 °C. The reaction was terminated by rapid filtration through GF/B filter mate presoaked with 0.5% polyethyleneimine for 30 min. Ten rapid washes with 200 µL 50 mM Tris buffer (4 °C, pH 7.4) were performed using the automated harvester system Harvester-96 MACH III FM (Tomtec). The filter mates were dried at 37 °C in a forced air fan incubator and then solid scintillator MeltiLex was melted on filter mates at 90 °C for 5 min. Radioactivity was counted in MicroBeta2 scintillation counter (PerkinElmer). Data were fitted to a one-site curve-fitting equation with Prism 6 (GraphPad Software) and Ki values were estimated from the Cheng−Prusoff equation.

[2] = ABTS free radical scavenging assay
Description: Antioxidant activity. As mentioned before, oxidative stress is one of the components of AD pathomechanism and is characterised by an imbalance in the production of ROS. One of the mechanisms by which antioxidants reduce the concentration of ROS and therefore prevent or slow the cell damage caused by free radicals is scavenging them. Thus, we tested the scavenging ability of compounds 12–19 in the spectrophotometric ABTS assay that we used before. In this assay, the ability of compounds to scavenge ABTS^• radicals, which are generated from 2,2’-azino-bis(3-ethylbenzothiazoline-6-sulphonic acid) (ABTS), is measured. We tested the compounds at three concentrations: 30, 75 and 150 μM after 5, 30 and 60 min of incubation using Trolox, a water-soluble vitamin E analogue, as a reference (Table S1 in Supporting information).
The spectrophotometric ABTS assay was performed in 96-well microplates with the reagents purchased from Sigma-Aldrich (Steinheim, Germany) according to the previously described procedure. Stock solutions of the tested compounds (6.4 mM) and reagents were prepared in DMSO and water, respectively. 2,2′-Azino-bis(3-ethylbenzothiazoline-6-sulfonic acid) free radical (ABTS^•) was prepared by mixing the stock solution of ABTS (7 mM) and […] (2.45 mM) in ratio 1:1. The mixture was kept in the dark at 4 °C for 16 h. The obtained solution of (ABTS^•) was diluted with water 20 times. Then, the test compound or water or mixture of DMSO/water in the appropriate ratio (0.02 mL) was added to ABTS^• solution (0.18 mL). The three concentrations of the test compounds and Trolox were tested in triplicate: 0.15, 0.075 and 0.03 mM. Changes in absorbance were measured at 734 nm after 5, 30 and 60 min, using a microplate reader (SPECTROstar Nano; BMG Labtech, Ortenberg, Germany). Based on the equation ((A0 − A)/A0) × 100% (where A0 and A were the absorbances without and with the test compound, respectively) the percentage of free radical scavenging activity was calculated. The results are presented as mean ± SD.

[3] = target: T2, human recombinant AChE (hAChE) (Homo sapiens, UniProt P22303); test: biochemical; settings: mean ± SEM of at least three experiments
T2 construct: purchased Sigma-Aldrich (Steinheim, Germany)
Protocol: (§1) 5-HT6R binding affinity and cholinesterase (AChE/BuChE) inhibitory activity. […] Their affinities for recombinant human 5-HT6 receptors (h5-HT6R) were tested in a radioligand binding assay and the inhibitory potencies against human recombinant AChE (hAChE) and BuChE isolated from human plasma (hBuChE) in the spectrophotometric Ellman’s assay.
(§2) The assay was based on spectrophotometric Ellman’s method and was performed in 96-well microplates with the reagents purchased from Sigma-Aldrich (Steinheim, Germany) according to the previously described procedure. hBuChE was kindly donated by Vivonics (Bedford, MA, USA). […] After 5 minutes of the enzymatic reaction, the changes in absorbance were measured at 412 nm, using a microplate reader (SPECTROstar Nano; BMG Labtech, Ortenberg, Germany). First, compounds were tested at the screening concentration of 10 µM. Based on the equation 100 − (S/B) × 100 (where S and B were the respective enzyme activities with and without the test sample, respectively) the percentage inhibition of each enzyme for each compound was calculated. […] The IC50 values were calculated using nonlinear regression (GraphPad Prism 5; GraphPad Software, San Diego, CA, USA) by plotting the residual enzyme activities against the applied inhibitor concentration. […] All experiments were performed in triplicate.

[4] = target: T3, BuChE isolated from human plasma (hBuChE) (Homo sapiens, UniProt P06276); test: biochemical; assay type: biochemical; settings: for IC50: mean ± SEM of at least three experiments
T3 construct: BuChE isolated from human plasma (hBuChE); tissue Vivonics (Bedford, MA, USA), donated; host or cells: human plasma
Protocol: as §1, §2

T1 sequence (P50406 whole entry): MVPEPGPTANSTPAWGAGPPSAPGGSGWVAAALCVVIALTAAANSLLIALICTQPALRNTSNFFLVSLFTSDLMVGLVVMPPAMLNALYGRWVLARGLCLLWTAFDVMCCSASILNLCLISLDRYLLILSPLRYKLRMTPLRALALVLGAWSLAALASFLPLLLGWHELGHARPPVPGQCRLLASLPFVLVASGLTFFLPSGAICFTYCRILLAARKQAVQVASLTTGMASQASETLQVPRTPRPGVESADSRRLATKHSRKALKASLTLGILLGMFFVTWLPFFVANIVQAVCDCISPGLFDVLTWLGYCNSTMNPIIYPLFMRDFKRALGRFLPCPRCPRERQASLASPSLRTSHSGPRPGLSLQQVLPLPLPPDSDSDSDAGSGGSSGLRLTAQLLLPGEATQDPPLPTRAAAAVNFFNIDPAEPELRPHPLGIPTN
T3 sequence (P06276 29-602): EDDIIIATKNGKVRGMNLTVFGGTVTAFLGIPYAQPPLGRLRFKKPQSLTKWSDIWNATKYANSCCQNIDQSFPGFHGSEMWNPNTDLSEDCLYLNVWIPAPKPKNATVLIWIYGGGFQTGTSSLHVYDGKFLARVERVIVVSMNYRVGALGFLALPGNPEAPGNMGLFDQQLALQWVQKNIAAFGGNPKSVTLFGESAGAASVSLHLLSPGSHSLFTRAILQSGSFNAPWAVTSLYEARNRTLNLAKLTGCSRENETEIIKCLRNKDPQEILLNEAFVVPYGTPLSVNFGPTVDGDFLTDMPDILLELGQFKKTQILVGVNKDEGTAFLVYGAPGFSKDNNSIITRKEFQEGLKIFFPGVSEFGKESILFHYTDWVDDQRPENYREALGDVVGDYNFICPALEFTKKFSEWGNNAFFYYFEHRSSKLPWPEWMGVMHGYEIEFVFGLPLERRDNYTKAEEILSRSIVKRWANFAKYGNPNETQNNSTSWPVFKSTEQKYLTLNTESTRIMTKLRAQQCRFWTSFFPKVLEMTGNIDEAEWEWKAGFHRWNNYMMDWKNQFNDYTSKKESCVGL
T2 sequence (P22303 32-614): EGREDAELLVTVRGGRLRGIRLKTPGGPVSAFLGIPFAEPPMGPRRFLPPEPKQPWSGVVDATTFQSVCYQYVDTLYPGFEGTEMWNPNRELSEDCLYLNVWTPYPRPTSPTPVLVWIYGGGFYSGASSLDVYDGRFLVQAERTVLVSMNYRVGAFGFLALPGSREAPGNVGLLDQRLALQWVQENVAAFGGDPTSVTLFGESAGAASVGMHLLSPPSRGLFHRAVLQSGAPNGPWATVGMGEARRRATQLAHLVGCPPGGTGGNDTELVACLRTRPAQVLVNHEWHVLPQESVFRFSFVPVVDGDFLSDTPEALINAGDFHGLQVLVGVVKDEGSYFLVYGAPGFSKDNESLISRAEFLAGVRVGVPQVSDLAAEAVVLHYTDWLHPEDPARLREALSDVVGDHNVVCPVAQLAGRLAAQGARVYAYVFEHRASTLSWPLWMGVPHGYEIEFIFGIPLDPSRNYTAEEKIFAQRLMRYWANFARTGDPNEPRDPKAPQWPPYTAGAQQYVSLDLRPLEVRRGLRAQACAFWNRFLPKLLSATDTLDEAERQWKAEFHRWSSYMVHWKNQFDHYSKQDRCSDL

O=c1[nH]c2c(OCCNCCC3CCN(Cc4ccccc4)CC3)cccc2n1Cc1ccccc1 [Compound 18, 1-Benzyl-4-(2-((2-(1-benzylpiperidin-4-yl)ethyl)amino)ethoxy)-1,3-dihydro-2H-benzo[d]imidazol-2-one]
Ki [1]: 0.142 ± 0.02 µM
% of ABTS• reduction ± SD ([2]; 30 µM, 5 min): 10±1%
% of ABTS• reduction ± SD ([2]; 30 µM, 30 min): 23±1%
% of ABTS• reduction ± SD ([2]; 30 µM, 60 min): 27±1%
% of ABTS• reduction ± SD ([2]; 75 µM, 5 min): 11±1%
% of ABTS• reduction ± SD ([2]; 75 µM, 30 min): 31±1%
% of ABTS• reduction ± SD ([2]; 75 µM, 60 min): 36±2%
% of ABTS• reduction ± SD ([2]; 150 µM, 5 min): 13±0%
% of ABTS• reduction ± SD ([2]; 150 µM, 30 min): 33±0%
% of ABTS• reduction ± SD ([2]; 150 µM, 60 min): 40±0%
IC50 [3]: 2.86 ± 0.068 µM
IC50 [4]: 1.16 ± 0.024 µM

O=S(=O)(c1ccccc1)N1CCc2c(OCCNCC3CCN(Cc4ccccc4)CC3)cccc21 [Compound 15, N-((1-Benzylpiperidin-4-yl)methyl)-2-((1-(phenylsulfonyl)indolin-4-yl)oxy)ethan-1-amine]
Ki [1]: 0.267 ± 0.009 µM
% of ABTS• reduction ± SD ([2]; 30 µM, 5 min): 10±0%
% of ABTS• reduction ± SD ([2]; 30 µM, 30 min): 10±1%
% of ABTS• reduction ± SD ([2]; 30 µM, 60 min): 11±0%
% of ABTS• reduction ± SD ([2]; 75 µM, 5 min): 11±1%
% of ABTS• reduction ± SD ([2]; 75 µM, 30 min): 13±1%
% of ABTS• reduction ± SD ([2]; 75 µM, 60 min): 15±1%
% of ABTS• reduction ± SD ([2]; 150 µM, 5 min): 19±1%
% of ABTS• reduction ± SD ([2]; 150 µM, 30 min): 29±1%
% of ABTS• reduction ± SD ([2]; 150 µM, 60 min): 36±4%
IC50 [3]: 8.21 ± 0.225 µM
IC50 [4]: 5.41 ± 0.1 µM

O=S(=O)(c1ccccc1)n1ccc2c(OCCNCCCC3CCN(Cc4ccccc4)CC3)cccc21 [Compound 14, 3-(1-Benzylpiperidin-4-yl)-N-(2-((1-(phenylsulfonyl)-1H-indol-4-yl)oxy)ethyl)propan-1-amine]
Ki [1]: 0.022 ± 0.002 µM
% of ABTS• reduction ± SD ([2]; 30 µM, 5 min): 5±3%
% of ABTS• reduction ± SD ([2]; 30 µM, 30 min): 5±3%
% of ABTS• reduction ± SD ([2]; 30 µM, 60 min): 6±3%
% of ABTS• reduction ± SD ([2]; 75 µM, 5 min): 13±1%
% of ABTS• reduction ± SD ([2]; 75 µM, 30 min): 18±0%
% of ABTS• reduction ± SD ([2]; 75 µM, 60 min): 21±0%
% of ABTS• reduction ± SD ([2]; 150 µM, 5 min): 20±0%
% of ABTS• reduction ± SD ([2]; 150 µM, 30 min): 29±0%
% of ABTS• reduction ± SD ([2]; 150 µM, 60 min): 35±0% and 35%
IC50 [3]: 0.93 ± 0.035 µM
fold higher potency against hBuChE than hAChE ([4]; hAChE IC50 vs. hBuChE IC50): 60 fold
IC50 [4]: 0.016 ± 0.001 µM
